Converted amounts (≈) assume the structure as drawn. Where two headings read alike, the source gives them in different places.
Columns and labels:
[1] = test system: Staphylococcus aureus S13E; assay: MIC, standard agar-dilution assay, Staphylococcus aureus S13E; format: cell-based
[2] = test system: Pasteurella hemolytica 22C; assay: MIC, broth-dilution microtiter test, Pasteurella hemolytica 22C; format: cell-based; settings: Pasteurella hemolytica 22C, broth-dilution microtiter
Excerpt: (§1) The MIC's in Table X were obtained using conventional broth-dilution microtiter tests.

[3] = test system: Streptococcus pyogenes C203; assay: MIC, standard agar-dilution assay, Streptococcus pyogenes C203; format: cell-based
[4] = test system: Haemophilus influenzae Holt; assay: MIC, standard agar-dilution assay, Haemophilus influenzae Holt; format: cell-based
[5] = test system: Pasteurella multocida 17E; assay: MIC, broth-dilution microtiter test, Pasteurella multocida 17E; format: cell-based; settings: Pasteurella multocida 17E, bovine isolate, broth-dilution microtiter
Excerpt: as §1

[6] = test system: Staphylococcus epidermidis EPI2; assay: MIC, standard agar-dilution assay, Staphylococcus epidermidis EPI2; format: cell-based
[7] = test system: Streptococcus pneumoniae Park I; assay: microbe, parasite or virus in culture; format: cell-based; settings: Streptococcus pneumoniae Park I, agar dilution
[8] = test system: Mycoplasma gallisepticum; assay: MIC, broth-dilution microtiter test, Mycoplasma gallisepticum; format: cell-based
Excerpt: as §1

[9] = test system: Staphylococcus aureus X1.1; assay: MIC, standard agar-dilution assay, Staphylococcus aureus X1.1; format: cell-based
[10] = test system: Haemophilus influenzae R252; assay: MIC, standard agar-dilution assay, Haemophilus influenzae R252; format: cell-based
[11] = test system: Staphylococcus aureus X400; assay: MIC, standard agar-dilution assay, Staphylococcus aureus X400; format: cell-based
[12] = test system: Streptococcus bovis 80; assay: MIC, broth-dilution microtiter test, Streptococcus bovis 80; format: cell-based; settings: Streptococcus bovis 80, broth-dilution microtiter
Excerpt: as §1

[13] = test system: Mycoplasma synoviae; assay: MIC, broth-dilution microtiter test, Mycoplasma synoviae; format: cell-based
Excerpt: as §1

[14] = test system: Staphylococcus aureus; assay: MIC, broth-dilution microtiter test, Staphylococcus aureus; format: cell-based
Excerpt: as §1

[15] = test system: Staphylococcus epidermidis EPI1; assay: MIC, standard agar-dilution assay, Staphylococcus epidermidis EPI1; format: cell-based
[16] = test system: Streptococcus Group D X66; assay: MIC, standard agar-dilution assay, Streptococcus Group D X66; format: cell-based
[17] = test system: Staphylococcus aureus V41; assay: MIC, standard agar-dilution assay, Staphylococcus aureus V41; format: cell-based
[18] = test system: Pasteurella multocida 60A; assay: MIC, broth-dilution microtiter test, Pasteurella multocida 60A; format: cell-based; settings: Pasteurella multocida 60A, avian isolate, broth-dilution microtiter
Excerpt: as §1

[19] = test system: Mycoplasma hyorhinis; assay: MIC, broth-dilution microtiter test, Mycoplasma hyorhinis; format: cell-based
Excerpt: as §1

[20] = test system: Streptococcus Group 9960; assay: MIC, standard agar-dilution assay, Streptococcus Group 9960; format: cell-based
[21] = test system: Streptococcus pyogenes C203; assay: In vivo protection of mice experimentally infected with S. pyogenes C203; settings: mice, doses given 1 and 4 hours post-infection
Method: The C-20 modified derivatives of this invention have shown in vivo antimicrobial activity against experimentally-induced infections in laboratory animals. When two doses of test compound were administered to mice experimentally infected with S. pyogenes C203, the activity observed was measured as an ED50 value [effective dose in mg/kg to protect 50% of the test animals: see Warren Wick, et al., J. Bacteriol. 81, 233-235 (1961)].

[22] = test system: Mycoplasma hyopneumoniae; assay: MIC, broth-dilution microtiter test, Mycoplasma hyopneumoniae; format: cell-based
Excerpt: as §1

[23] = Staphylococcus epidermidis, EPI2
[24] = Mycoplasmoides gallisepticum, Mycoplasma gallisepticum, broth-dilution microtiter, read-out: MIC
[25] = Haemophilus influenzae R252, ampicillin-resistant strain, read-out: MIC
[26] = Streptococcus equinus, read-out: MIC
[27] = Staphylococcus epidermidis, EPI1
[28] = Streptococcus Group D X66, agar dilution, read-out: MIC
[29] = GROUP9960, Streptococcus Group 9960, agar dilution, read-out: MIC
[30] = Mesomycoplasma hyopneumoniae, Mycoplasma hyopneumoniae, broth-dilution microtiter, read-out: MIC
[31] = Haemophilus influenzae Holt, ampicillin-sensitive strain, read-out: MIC

## CCC1OC(=O)CC(O)C(C)C(OC2OC(C)C(O)C(N(C)C)C2O)C(CCOc2cccc(Oc3ccccc3)c2)CC(C)C(=O)C=CC(C)=CC1COC1OC(C)C(O)C(OC)C1OC (centres unmarked) [Compound 48, 20-DH-20-O-(m-Phenoxyphenyl)desmycosin]
[1]; Staphylococcus aureus S13E, agar dilution
  MIC: 0.5 µg/mL (≈ 0.531 µM)
[2]
  MIC: 25 µg/mL (≈ 26.5 µM)
[3]; Streptococcus pyogenes C203, agar dilution
  MIC: 0.25 µg/mL (≈ 0.265 µM)
[4]; Haemophilus influenzae Holt, ampicillin-sensitive strain, agar dilution
  MIC: 16 µg/mL (≈ 17 µM)
[5]
  MIC: 25 µg/mL (≈ 26.5 µM)
[6]; Staphylococcus epidermidis EPI2, agar dilution
  MIC: 0.25 µg/mL (≈ 0.265 µM)
[7]
  MIC: 0.25 µg/mL (≈ 0.265 µM)
[8]; Mycoplasma gallisepticum, broth-dilution microtiter
  MIC: < 0.05 µg/mL
[9]; Staphylococcus aureus X1.1, agar dilution
  MIC: 0.5 µg/mL (≈ 0.531 µM)
[10]; Haemophilus influenzae R252, ampicillin-resistant strain, agar dilution
  MIC: 16 µg/mL (≈ 17 µM)
[11]; Staphylococcus aureus X400, methicillin-resistant strain, agar dilution
  MIC: 0.5 µg/mL (≈ 0.531 µM)
[12]
  MIC: 0.09 µg/mL (≈ 0.0955 µM)
[13]; Mycoplasma synoviae, broth-dilution microtiter
  MIC: 0.19 µg/mL (≈ 0.202 µM)
[14]; broth-dilution microtiter
  MIC: 0.78 µg/mL (≈ 0.828 µM)
[15]; Staphylococcus epidermidis EPI1, agar dilution
  MIC: 0.5 µg/mL (≈ 0.531 µM)
[16]; Streptococcus Group D X66, agar dilution
  MIC: 0.5 µg/mL (≈ 0.531 µM)
[17]; Staphylococcus aureus V41, penicillin-resistant strain, agar dilution
  MIC: 0.5 µg/mL (≈ 0.531 µM)
[18]
  MIC: 25 µg/mL (≈ 26.5 µM)
[19]; Mycoplasma hyorhinis, broth-dilution microtiter
  MIC: 12.5 µg/mL (≈ 13.3 µM)
[20]; Streptococcus Group 9960, agar dilution
  MIC: 1 µg/mL (≈ 1.06 µM)
[21]; oral
  ED50, Oral: 35 mg/kg × 2
[21]; subcutaneous
  ED50, Subcutaneous: > 10 mg/kg × 2
[22]; Mycoplasma hyopneumoniae, broth-dilution microtiter
  MIC: 1.56 µg/mL (≈ 1.66 µM)

## CCC1OC(=O)CC(O)C(C)C(OC2OC(C)C(OC3CC(C)(O)C(O)C(C)O3)C(N(C)C)C2O)C(CCOc2cccc(N(C)C)c2)CC(C)C(=O)C=CC(C)=CC1COC1OC(C)C(O)C(OC)C1OC (centres unmarked) [Compound 16, 20-DH-20-O-[m-(N,N-Dimethylamino)phenyl]tylosin]
[1]; Staphylococcus aureus, S13E
  MIC: 1 µg/mL (≈ 0.964 µM)
[2]; read-out: MIC
  MIC: > 50 µg/mL
[3]; Streptococcus pyogenes C203, agar dilution, read-out: MIC
  MIC: 1 µg/mL (≈ 0.964 µM)
[4]; Haemophilus influenzae
  MIC: 128 µg/mL (≈ 123 µM)
[5]; read-out: MIC
  MIC: > 50 µg/mL
[6]; [23]
  MIC: 1 µg/mL (≈ 0.964 µM)
[7]; read-out: MIC
  MIC: 8 µg/mL (≈ 7.71 µM)
[8]; [24]
  MIC: 1.56 µg/mL (≈ 1.5 µM)
[9]; Staphylococcus aureus, X1.1
  MIC: 1 µg/mL (≈ 0.964 µM)
[10]; [25]
  MIC: > 128 µg/mL
[11]; Staphylococcus aureus X400, methicillin-resistant strain, agar dilution, read-out: MIC
  MIC: 2 µg/mL (≈ 1.93 µM)
[12]; [26]
  MIC: 50 µg/mL (≈ 48.2 µM)
[13]; Mycoplasmopsis synoviae, Mycoplasma synoviae, broth-dilution microtiter, read-out: MIC
  MIC: 6.25 µg/mL (≈ 6.03 µM)
[14]; broth-dilution microtiter, read-out: MIC
  MIC: 1.56 µg/mL (≈ 1.5 µM)
[15]; [27]
  MIC: 1 µg/mL (≈ 0.964 µM)
[16]; [28]
  MIC: 64 µg/mL (≈ 61.7 µM)
[17]; Staphylococcus aureus, V41
  MIC: 1 µg/mL (≈ 0.964 µM)
[18]; read-out: MIC
  MIC: > 50 µg/mL
[19]; Mycoplasma
  MIC: 50 µg/mL (≈ 48.2 µM)
[20]; [29]
  MIC: > 128 µg/mL
[22]; [30]
  MIC: > 25 µg/mL

## CCC1OC(=O)CC(O)C(C)C(OC2OC(C)C(OC3CC(C)(O)C(O)C(C)O3)C(N(C)C)C2O)C(CCOc2ccc([N+](=O)[O-])cc2)CC(C)C(=O)C=CC(C)=CC1COC1OC(C)C(O)C(OC)C1OC (centres unmarked) [Compound 12, 20-DH-20-O-(p-Nitrophenyl)tylosin]
[1]; Staphylococcus aureus, S13E
  MIC: 1 µg/mL (≈ 0.962 µM)
[2]; read-out: MIC
  MIC: > 50 µg/mL
[3]; Streptococcus pyogenes, C203
  MIC: 2 µg/mL (≈ 1.92 µM)
[4]; [31]
  MIC: > 128 µg/mL
[5]; read-out: MIC
  MIC: > 50 µg/mL
[6]; Staphylococcus epidermidis EPI2, agar dilution, read-out: MIC
  MIC: 0.5 µg/mL (≈ 0.481 µM)
[7]; read-out: MIC
  MIC: 16 µg/mL (≈ 15.4 µM)
[8]; [24]
  MIC: 0.39 µg/mL (≈ 0.375 µM)
[9]; Staphylococcus aureus, X1.1
  MIC: 1 µg/mL (≈ 0.962 µM)
[10]; Haemophilus influenzae, R252
  MIC: 128 µg/mL (≈ 123 µM)
[11]; Staphylococcus aureus, X400
  MIC: 2 µg/mL (≈ 1.92 µM)
[12]; [26]
  MIC: 25 µg/mL (≈ 24.1 µM)
[13]; Mycoplasmopsis synoviae
  MIC: 1.56 µg/mL (≈ 1.5 µM)
[14]
  MIC: 1.56 µg/mL (≈ 1.5 µM)
[15]; [27]
  MIC: 1 µg/mL (≈ 0.962 µM)
[16]; [28]
  MIC: 128 µg/mL (≈ 123 µM)
[17]; Staphylococcus aureus, V41
  MIC: 1 µg/mL (≈ 0.962 µM)
[18]; read-out: MIC
  MIC: > 50 µg/mL
[19]; Mycoplasma
  MIC: 50 µg/mL (≈ 48.1 µM)
[20]; GROUP9960
  MIC: > 128 µg/mL
[22]; [30]
  MIC: > 25 µg/mL

## CCC1OC(=O)CC(O)C(C)C(OC2OC(C)C(OC3CC(C)(O)C(O)C(C)O3)C(N(C)C)C2O)C(CCOc2ccc(C=O)cc2)CC(C)C(=O)C=CC(C)=CC1COC1OC(C)C(O)C(OC)C1OC (centres unmarked) [Compound 17, 20-DH-20-O-(p-Formylphenyl)tylosin]
[1]; Staphylococcus aureus, S13E
  MIC: 1 µg/mL (≈ 0.978 µM)
[2]; read-out: MIC
  MIC: > 50 µg/mL
[3]; Streptococcus pyogenes, C203
  MIC: 1 µg/mL (≈ 0.978 µM)
[4]; [31]
  MIC: > 128 µg/mL
[5]; read-out: MIC
  MIC: > 50 µg/mL
[6]; [23]
  MIC: 0.5 µg/mL (≈ 0.489 µM)
[7]; read-out: MIC
  MIC: 16 µg/mL (≈ 15.7 µM)
[8]; Mycoplasmoides gallisepticum
  MIC: 0.78 µg/mL (≈ 0.763 µM)
[9]; Staphylococcus aureus, X1.1
  MIC: 1 µg/mL (≈ 0.978 µM)
[10]; [25]
  MIC: > 128 µg/mL
[11]; Staphylococcus aureus, X400
  MIC: 2 µg/mL (≈ 1.96 µM)
[12]; [26]
  MIC: 50 µg/mL (≈ 48.9 µM)
[13]; Mycoplasmopsis synoviae
  MIC: 6.25 µg/mL (≈ 6.11 µM)
[14]
  MIC: 1.56 µg/mL (≈ 1.53 µM)
[15]; [27]
  MIC: 1 µg/mL (≈ 0.978 µM)
[16]
  MIC: 128 µg/mL (≈ 125 µM)
[17]; Staphylococcus aureus, V41
  MIC: 1 µg/mL (≈ 0.978 µM)
[18]; read-out: MIC
  MIC: > 50 µg/mL
[19]; Mycoplasma hyorhinis, broth-dilution microtiter, read-out: MIC
  MIC: > 50 µg/mL
[20]; [29]
  MIC: > 128 µg/mL
[22]; Mesomycoplasma hyopneumoniae
  MIC: > 25 µg/mL
